We go through 15 molecules from ChEMBL document CHEMBL1759939, “Novel analogues of ketamine and phencyclidine as NMDA receptor antagonists” (Bioorg Med Chem Lett, 2011).

The target of experiment [1] is Glutamate NMDA receptor; GRIN1/GRIN2A (Homo sapiens, UniProt Q05586+Q12879). The experiment can be described thus: Inhibition of human recombinant NR1/NR2A receptor expressed in U2OS assessed as change in intracellular calcium level by FLIPR assay. The class given is cell-based. More on the design: concentration or dose not given beside the values.
For experiment [2], the target named is Glutamate NMDA receptor; GRIN1/GRIN2B (Homo sapiens, UniProt Q05586+Q13224). The experiment can be described thus: Inhibition of human recombinant NR1/NR2B receptor expressed in U2OS assessed as change in intracellular calcium level by FLIPR assay. The class given is cell-based. More on the design: concentration or dose not given beside the values.

pIC50: −log10 of the molar value.

On to `CNC1(c2ccccc2Cl)CCCNC1=O` (stereo not given), for which, in experiment [1], the Activity is 80% and the pIC50 is 4.40. In experiment [2], the Activity amounted to 80% and the negative-log IC50 (pIC50) was under 3.60.

Turning to `CNC1(c2ccccc2Cl)CCCCC1=O` (stereo not given) [KETAMINE], the Activity in experiment [1] and in experiment [2] was over 100% throughout. Moreover, the pIC50 in experiment [1] was 5.90; in experiment [2], 5.30.

On to `CNC1(c2ccccc2Cl)CCCN(C)C1=O` (stereo not given), for which, in experiment [1], the Activity was 80% and the pIC50 is under 3.60. In experiment [2], the Activity worked out at 80% and the pIC50 was under 3.60.

Consider `NC1(c2ccccc2Cl)CCCNC1=O` (stereo not given), for which, in experiment [1], the Activity came out at 80% and the negative logarithm of the IC50 (pIC50) was under 4.30. In experiment [2], the Activity stood at 80% and the pIC50 is under 4.30.

For the molecule `c1ccc(C2(N3CCCCC3)CCCCC2)cc1` [PHENCYCLIDINE], in experiment [1], the Activity was over 100% and the negative logarithm of the IC50 (pIC50) is 6.40. For the same molecule, in experiment [2], the Activity is over 100% and the pIC50 is 5.90.

For the molecule `CCCCOc1ccc(C2(N3CCCCC3)CCCCC2)cc1`, in experiment [1], the Activity was 94% and the negative-log IC50 (pIC50) is under 4.30. In experiment [2], the Activity is 94% and the pIC50 was under 4.30.

As to `CNC1(c2ccc(OC)cc2Cl)CCCCC1=O` (stereo not given), the Activity in experiment [1] and in experiment [2] was 80% throughout. The pIC50 in experiment [1] is 5.00; in experiment [2], 4.70.

Regarding `O=C1NCCC1(c1ccccc1)N1CCCCC1` (stereo not given), in experiment [1], the Activity was 80% and the pIC50 was 4.60. Moreover, in experiment [2], the Activity was found to be 80% and the pIC50 is 4.20.

As to `CCCCOc1cccc(C2(N3CCCCC3)CCCCC2)c1`, the Activity in experiment [1] and in experiment [2] was 94% each time. Besides, the pIC50 was 5.70 in experiment [1] and 4.70 in experiment [2].

Regarding `CN1CCC(c2ccccc2)(N2CCCCC2)C1=O` (stereo not given), the Activity in experiment [1] and in experiment [2] was 80% each time. In addition, the negative-log IC50 (pIC50) in experiment [1] is 4.30; in experiment [2] it was 3.60.

`COc1ccc(C2(N3CCCCC3)CCCCC2)cc1`: the Activity in experiment [1] and in experiment [2] was 94% throughout. The negative logarithm of the IC50 (pIC50) in experiment [1] is 5.40; in experiment [2], 4.80.

For the molecule `c1ccc(C2(N3CCCCC3)CCCCC2)nc1`, the Activity in experiment [1] and in experiment [2] was 94% in each case. For the same molecule, the pIC50 is 5.60 in experiment [1] and 5.10 in experiment [2].

Consider `O=C1NCCCC1(c1ccccc1)N1CCCCC1` (stereo not given), for which, in experiment [1], the Activity amounted to 80% and the pIC50 was 4.60. Further, in experiment [2], the Activity is 80% and the pIC50 is 3.80.

For `CN1CCCC(c2ccccc2)(N2CCCCC2)C1=O` (stereo not given), in experiment [1], the Activity was 80% and the pIC50 was 5.50. Besides, in experiment [2], the Activity stood at 80% and the negative-log IC50 (pIC50) is under 3.60.

For the molecule `FC(F)(F)COc1cccc(C2(N3CCCCC3)CCCCC2)c1`, the Activity in experiment [1] and in experiment [2] was 94% in each case. For the same molecule, the results for the pIC50 in experiment [1] and in experiment [2] were 5.30 and 4.50, respectively.
